# Experiments:
# [1] = target: T1, MMP-9 (Homo sapiens, UniProt P14780); experiment: MMP-9 inhibition assay (fluorogenic peptide substrate); assay type: biochemical; design: remaining enzyme activity (% of control): scale not given here; settings: for remaining enzyme activity (% of control): MMP-9; for IC50: mean ± SE, n.d: not detected, Fig. 5e prints no unit, µM, read-out: IC50
# T1 construct: purchased Sino Biological 10327-HNAH
# Description: (§1) The inhibition by the small molecule compounds against MMP-2/MMP-9 was measured using an assay probing the enzyme proteolytic activity on the substrate DNP-Pro-Leu-Gly-Met-Trp-Ser-Arg (Enzo Life Sciences, USA). All assays were performed in the assay buffer containing 50 mM Tris, 100 mM NaCl. 5 mM CaCl2, and 0.1% Brij 35, pH 7.5. Human proMMP-2 and proMMP-9 were purchased from Sino biological (Germany). The proMMPs were activated by 1 mM APMA in the assay buffer at 37 °C for 2 h. After activation, MMP-2 was diluted to 6.5 nM of final assay concentration, and MMP-9 was diluted by the buffer to reach 10 nM of final assay concentration. In each well, 49 μl of enzyme solution was incubated with 1 μl of compounds of series of concentration (nM-mM in DMSO) at RT for 30 min. 2 μl of the FRET substrate was added right before the measurement at a final concentration of 25 μM. The rate of hydrolysis was monitored by quantifying the emission at 360 nm (ex: 280 nm). The emission was measured with intervals of the 30 s for 30 min with Synergy H1 Plate Reader (Agilent, USA). The measurements were done in triplicate. […] Then, curves were plotted as a function of the concentration of the inhibitor against the relative enzyme activity. Vmax was derived from the detected […] signal for each concentration and logistic fitting was performed to obtain IC50 values using Origin 2019b (OriginLab).
# [2] = target: T2, MMP-2 (Homo sapiens, UniProt P08253); experiment: MMP-2 inhibition assay (fluorogenic peptide substrate); assay type: biochemical; settings: for remaining activity (%): MMP-2; for IC50: mean ± SE, n.d: not detected, Fig. 5d unit inferred, µM, read-out: IC50
# T2 construct: purchased Sino Biological 10082-HNAH
# T2 sequence (P08253 110-660): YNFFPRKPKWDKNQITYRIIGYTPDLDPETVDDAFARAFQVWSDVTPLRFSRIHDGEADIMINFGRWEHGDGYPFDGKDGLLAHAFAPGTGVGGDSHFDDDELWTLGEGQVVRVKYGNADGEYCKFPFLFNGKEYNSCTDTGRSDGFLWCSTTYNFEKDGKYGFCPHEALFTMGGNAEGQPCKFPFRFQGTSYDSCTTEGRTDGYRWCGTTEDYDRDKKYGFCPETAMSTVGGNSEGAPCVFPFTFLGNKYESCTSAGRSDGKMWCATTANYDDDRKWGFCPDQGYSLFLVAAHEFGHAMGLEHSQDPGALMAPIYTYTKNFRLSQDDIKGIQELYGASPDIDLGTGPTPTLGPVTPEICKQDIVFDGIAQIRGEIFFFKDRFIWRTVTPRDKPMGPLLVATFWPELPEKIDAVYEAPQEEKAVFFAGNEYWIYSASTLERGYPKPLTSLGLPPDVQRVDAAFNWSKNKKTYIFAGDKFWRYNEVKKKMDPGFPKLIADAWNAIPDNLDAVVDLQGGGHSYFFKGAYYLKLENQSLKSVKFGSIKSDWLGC
# Description: as §1
# T1 sequence (P14780 107-707 limits assumed): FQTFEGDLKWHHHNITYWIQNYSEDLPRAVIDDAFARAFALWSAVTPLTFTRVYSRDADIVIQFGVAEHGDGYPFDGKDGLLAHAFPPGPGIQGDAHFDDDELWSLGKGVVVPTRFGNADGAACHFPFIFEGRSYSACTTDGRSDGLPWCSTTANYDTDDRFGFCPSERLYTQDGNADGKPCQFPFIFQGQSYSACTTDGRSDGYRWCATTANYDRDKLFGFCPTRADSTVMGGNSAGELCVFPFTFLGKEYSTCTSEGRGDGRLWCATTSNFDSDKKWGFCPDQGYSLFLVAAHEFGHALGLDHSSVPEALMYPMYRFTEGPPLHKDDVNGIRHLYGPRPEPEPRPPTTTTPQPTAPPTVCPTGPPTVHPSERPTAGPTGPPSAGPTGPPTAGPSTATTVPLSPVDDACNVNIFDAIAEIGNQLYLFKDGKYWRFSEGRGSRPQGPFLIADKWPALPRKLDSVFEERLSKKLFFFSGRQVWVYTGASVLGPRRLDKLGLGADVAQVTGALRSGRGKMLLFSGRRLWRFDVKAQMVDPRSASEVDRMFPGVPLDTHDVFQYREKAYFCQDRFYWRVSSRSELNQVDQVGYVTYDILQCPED
SMILES,remaining enzyme activity (% of control) ([1]; concentration 0.12 µM),remaining enzyme activity (% of control) ([1]; concentration 0.49 µM),remaining enzyme activity (% of control) ([1]; concentration 1.95 µM),remaining enzyme activity (% of control) ([1]; concentration 7.81 µM),remaining enzyme activity (% of control) ([1]; concentration 31.25 µM),remaining enzyme activity (% of control) ([1]; concentration 125.00 µM),remaining enzyme activity (% of control) ([1]; concentration 500.00 µM),remaining activity (%) ([2]; concentration 0.12 µM),remaining activity (%) ([2]; concentration 0.49 µM),remaining activity (%) ([2]; concentration 1.95 µM),remaining activity (%) ([2]; concentration 7.81 µM),remaining activity (%) ([2]; concentration 31.25 µM),remaining activity (%) ([2]; concentration 125.00 µM),remaining activity (%) ([2]; concentration 500.00 µM),remaining enzyme activity (% of control) ([1]; concentration 0.08 µM),remaining enzyme activity (% of control) ([1]; concentration 0.39 µM),remaining enzyme activity (% of control) ([1]; concentration 9.75 µM),remaining enzyme activity (% of control) ([1]; concentration 48.76 µM),remaining enzyme activity (% of control) ([1]; concentration 243.80 µM),remaining enzyme activity (% of control) ([1]; concentration 1219.00 µM),other results
O=C(CNC(=O)NC12CC3CC(CC(C3)C1)C2)NCCCCCCCCNC(=O)c1cncc(O)c1 [66+828 Linker 4],–,–,101.95,–,–,–,–,–,–,95.05,–,–,–,–,92.81,100.82,96.31,80.00,52.30,13.62,remaining activity (%) ([2]; concentration 0.0156 µM): 106.93; remaining activity (%) ([2]; concentration 0.08 µM): 108.75; remaining activity (%) ([2]; concentration 0.39 µM): 91.04; remaining activity (%) ([2]; concentration 9.75 µM): 96.24; remaining activity (%) ([2]; concentration 48.76 µM): 69.88; remaining activity (%) ([2]; concentration 243.80 µM): 65.10; remaining activity (%) ([2]; concentration 1219.00 µM): 54.12
O=C(CNC(=O)NC12CC3CC(CC(C3)C1)C2)NCCOCCOCCNC(=O)c1cncc(O)c1 [66+828 Linker 10],–,–,97.80,–,–,–,–,–,–,–,–,–,–,–,104.97,105.32,93.32,91.82,71.42,29.10,IC50 [1]: 521 ± 36.5 µM; remaining activity (%) ([2]; concentration 0.07 µM): 92.68; remaining activity (%) ([2]; concentration 0.33 µM): 96.27; remaining activity (%) ([2]; concentration 1.67 µM): 86.29; remaining activity (%) ([2]; concentration 8.34 µM): 96.46; remaining activity (%) ([2]; concentration 41.72 µM): 79.41; remaining activity (%) ([2]; concentration 208.60 µM): 61.20; remaining activity (%) ([2]; concentration 1043.00 µM): 17.26; remaining activity (%) ([2]; concentration […]): 100.18; IC50 [2]: 293 ± 32.6 µM
O=C(C=CCCCCNC(=O)c1cncc(O)c1)CC(=O)NCC12CC3CC(CC(C3)C1)C2 [66+828 Linker 12],–,–,101.49,–,–,–,–,–,–,94.73,–,–,–,–,103.52,103.70,97.37,61.33,18.36,3.09,IC50 [1]: 77.4 ± 13.9 µM; remaining activity (%) ([2]; concentration 0.0156 µM): 99.10; remaining activity (%) ([2]; concentration 0.08 µM): 102.47; remaining activity (%) ([2]; concentration 0.39 µM): 95.82; remaining activity (%) ([2]; concentration 9.75 µM): 93.23; remaining activity (%) ([2]; concentration 48.76 µM): 86.38; remaining activity (%) ([2]; concentration 243.80 µM): 70.35; remaining activity (%) ([2]; concentration 1219.00 µM): 22.32; IC50 [2]: 488 ± 45.3 µM

# Continued, in another order:
remaining enzyme activity (% of control) ([1]; concentration 0.12 µM),remaining enzyme activity (% of control) ([1]; concentration 0.49 µM),remaining enzyme activity (% of control) ([1]; concentration 1.95 µM),remaining enzyme activity (% of control) ([1]; concentration 7.81 µM),remaining enzyme activity (% of control) ([1]; concentration 31.25 µM),remaining enzyme activity (% of control) ([1]; concentration 125.00 µM),remaining enzyme activity (% of control) ([1]; concentration 500.00 µM),remaining activity (%) ([2]; concentration 0.12 µM),remaining activity (%) ([2]; concentration 0.49 µM),remaining activity (%) ([2]; concentration 1.95 µM),remaining activity (%) ([2]; concentration 7.81 µM),remaining activity (%) ([2]; concentration 31.25 µM),remaining activity (%) ([2]; concentration 125.00 µM),remaining activity (%) ([2]; concentration 500.00 µM),remaining enzyme activity (% of control) ([1]; concentration 0.08 µM),remaining enzyme activity (% of control) ([1]; concentration 0.39 µM),remaining enzyme activity (% of control) ([1]; concentration 9.75 µM),remaining enzyme activity (% of control) ([1]; concentration 48.76 µM),remaining enzyme activity (% of control) ([1]; concentration 243.80 µM),remaining enzyme activity (% of control) ([1]; concentration 1219.00 µM),SMILES,other results
99.87,98.00,97.71,90.00,87.32,80.00,70.00,101.73,104.42,99.57,96.59,91.55,88.04,85.39,–,–,–,–,–,–,Cn1c(O)nc2cc(C(=O)NCCOCCOCCNC(=O)CNC(=O)NC34CC5CC(CC(C5)C3)C4)cnc21 [66+826 Linker 10],–
93.60,81.81,96.97,103.45,97.31,94.06,80.41,102.70,99.61,102.06,101.87,95.39,94.81,77.92,–,–,–,–,–,–,Cn1c(O)nc2cc(C(=O)NCCCC/C=C/C(=O)CC(=O)NCC34CC5CC(CC(C5)C3)C4)cnc21 [66+826 Linker 12],–
103.98,100.00,102.00,100.00,108.11,104.50,89.34,102.86,110.62,101.91,112.01,94.11,93.82,94.00,–,–,–,–,–,–,Cn1c(O)nc2cc(C(=O)NCCSCC(=O)NCC34CC5CC(CC(C5)C3)C4)cnc21 [66+826 Linker 24],–

# Reference: publication PMC10023787, “Trio-pharmacophore DNA-encoded chemical library for simultaneous selection of fragments and linkers” (Nature Communications, 2023)
